# Test results as given in PMC4823954, “From fighting depression to conquering tumors: a novel tricyclic thiazepine compound as a tubulin polymerization inhibitor” (Cell Death & Disease, 2016).
# What was measured:
# Experiment in all cases: KINOMEscan
# Format in all cases: binding
# Settings in all cases: read-out: % Ctrl
# [1] = molecular target: T1, ABL1(F317L)-nonphosphorylated (Homo sapiens, UniProt P00519, F317L)
# T1 construct: purchased DiscoveRx KINOMEscan
# IRAK3 = molecular target: T2, IRAK3 (Homo sapiens, UniProt Q9Y616)
# T2 construct: purchased DiscoveRx KINOMEscan
# T2 sequence (Q9Y616 whole entry): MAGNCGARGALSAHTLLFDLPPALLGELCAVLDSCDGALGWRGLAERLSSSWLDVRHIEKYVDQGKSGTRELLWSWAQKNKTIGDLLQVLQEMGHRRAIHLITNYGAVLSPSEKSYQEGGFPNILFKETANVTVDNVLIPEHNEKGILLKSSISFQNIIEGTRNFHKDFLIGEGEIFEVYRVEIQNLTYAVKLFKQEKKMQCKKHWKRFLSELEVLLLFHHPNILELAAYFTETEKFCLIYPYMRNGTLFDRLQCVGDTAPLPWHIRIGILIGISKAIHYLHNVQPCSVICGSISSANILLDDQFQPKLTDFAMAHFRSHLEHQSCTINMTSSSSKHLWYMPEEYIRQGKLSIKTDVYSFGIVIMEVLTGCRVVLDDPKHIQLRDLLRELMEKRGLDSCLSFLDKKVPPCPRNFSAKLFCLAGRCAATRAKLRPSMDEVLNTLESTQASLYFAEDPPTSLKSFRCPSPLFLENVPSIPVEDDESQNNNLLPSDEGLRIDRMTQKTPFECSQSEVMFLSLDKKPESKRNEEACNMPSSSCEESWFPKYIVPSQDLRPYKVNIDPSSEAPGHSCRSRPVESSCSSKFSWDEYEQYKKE
# Summary of the method: (§1)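 Competition binding panel of 442 non-mutant kinases: test compound at 5 and 10 μM competed with an active-site-directed ligand for 1 h with shaking. Bound kinase was eluted with 0.5 μM ligand and quantified by qPCR; %Ctrl = (compound − positive control)/(DMSO − positive control) × 100, lower meaning tighter binding.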
# MKNK2 = molecular target: T3, MKNK2 (Homo sapiens, UniProt Q9HBH9)
# T3 construct: purchased DiscoveRx KINOMEscan
# Summary of the method: as §1
# [2] = molecular target: RPS6KA5(Kin.Dom.2-C-terminal) (Homo sapiens, UniProt O75582)
# Summary of the method: as §1
# CAMK1G = molecular target: T4, CAMK1G (Homo sapiens, UniProt Q96NX5)
# T4 construct: purchased DiscoveRx KINOMEscan
# T4 sequence (Q96NX5 whole entry): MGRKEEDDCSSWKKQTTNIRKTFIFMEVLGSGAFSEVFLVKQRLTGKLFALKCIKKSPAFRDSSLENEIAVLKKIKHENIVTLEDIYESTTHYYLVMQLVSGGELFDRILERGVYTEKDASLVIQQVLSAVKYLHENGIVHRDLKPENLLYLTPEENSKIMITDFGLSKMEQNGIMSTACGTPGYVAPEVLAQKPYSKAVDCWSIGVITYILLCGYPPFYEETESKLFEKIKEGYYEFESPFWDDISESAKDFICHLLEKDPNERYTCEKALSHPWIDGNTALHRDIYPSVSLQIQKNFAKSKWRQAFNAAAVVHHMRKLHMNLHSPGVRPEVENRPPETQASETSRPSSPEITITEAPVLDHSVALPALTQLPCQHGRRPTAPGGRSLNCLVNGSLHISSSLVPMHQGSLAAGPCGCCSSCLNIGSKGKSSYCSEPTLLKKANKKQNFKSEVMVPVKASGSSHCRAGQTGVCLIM
# Summary of the method: as §1
# MRCKB = molecular target: T5, MRCKB (Homo sapiens, UniProt Q9Y5S2)
# T5 construct: purchased DiscoveRx KINOMEscan
# Summary of the method: as §1
# PIK3C2B = molecular target: T6, PIK3C2B (Homo sapiens, UniProt O00750)
# T6 construct: purchased DiscoveRx KINOMEscan
# Summary of the method: as §1
# SYK = molecular target: T7, SYK (Homo sapiens, UniProt P43405)
# T7 construct: purchased DiscoveRx KINOMEscan
# Summary of the method: as §1
# GRK1 = molecular target: T8, GRK1 (Homo sapiens, UniProt Q15835)
# T8 construct: purchased DiscoveRx KINOMEscan
# Summary of the method: as §1
# PIK3CD = molecular target: T9, PIK3CD (Homo sapiens, UniProt O00329)
# T9 construct: purchased DiscoveRx KINOMEscan
# Summary of the method: as §1
# LCK = molecular target: T10, LCK (Homo sapiens, UniProt P06239)
# T10 construct: purchased DiscoveRx KINOMEscan
# Summary of the method: as §1
# ERBB2 = molecular target: T11, ERBB2 (Homo sapiens, UniProt P04626)
# T11 construct: purchased DiscoveRx KINOMEscan
# T11 sequence (P04626 23-1255): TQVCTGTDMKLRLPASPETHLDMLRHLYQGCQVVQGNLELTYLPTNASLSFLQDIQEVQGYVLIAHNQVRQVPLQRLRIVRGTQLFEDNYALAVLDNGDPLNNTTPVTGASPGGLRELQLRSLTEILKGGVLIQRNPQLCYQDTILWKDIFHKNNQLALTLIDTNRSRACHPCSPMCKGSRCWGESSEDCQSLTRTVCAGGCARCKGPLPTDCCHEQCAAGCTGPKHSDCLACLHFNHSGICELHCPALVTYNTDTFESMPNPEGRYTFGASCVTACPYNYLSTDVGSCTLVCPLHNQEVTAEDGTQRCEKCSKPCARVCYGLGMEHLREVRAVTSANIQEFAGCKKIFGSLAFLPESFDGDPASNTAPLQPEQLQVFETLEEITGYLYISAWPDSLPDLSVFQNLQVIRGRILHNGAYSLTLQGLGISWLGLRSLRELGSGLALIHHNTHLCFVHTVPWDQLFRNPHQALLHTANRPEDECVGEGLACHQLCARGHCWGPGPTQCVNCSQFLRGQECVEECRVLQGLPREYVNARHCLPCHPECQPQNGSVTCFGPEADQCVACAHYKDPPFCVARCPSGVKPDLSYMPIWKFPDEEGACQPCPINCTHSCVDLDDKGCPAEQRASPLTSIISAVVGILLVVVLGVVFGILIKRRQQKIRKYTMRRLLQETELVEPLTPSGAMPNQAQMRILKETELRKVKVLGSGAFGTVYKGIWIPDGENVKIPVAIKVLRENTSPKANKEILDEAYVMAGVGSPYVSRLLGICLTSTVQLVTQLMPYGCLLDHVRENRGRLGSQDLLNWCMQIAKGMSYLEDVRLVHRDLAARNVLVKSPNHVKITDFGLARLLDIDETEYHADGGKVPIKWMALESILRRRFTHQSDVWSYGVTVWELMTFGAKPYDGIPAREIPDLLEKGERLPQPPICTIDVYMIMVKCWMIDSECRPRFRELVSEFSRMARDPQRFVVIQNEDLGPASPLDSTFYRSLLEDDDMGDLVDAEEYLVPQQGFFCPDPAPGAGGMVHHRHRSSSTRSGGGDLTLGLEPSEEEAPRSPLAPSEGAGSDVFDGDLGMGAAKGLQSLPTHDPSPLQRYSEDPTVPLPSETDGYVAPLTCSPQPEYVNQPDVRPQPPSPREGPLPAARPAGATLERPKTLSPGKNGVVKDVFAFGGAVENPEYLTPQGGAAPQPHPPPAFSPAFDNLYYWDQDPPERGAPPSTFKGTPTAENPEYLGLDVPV
# Summary of the method: as §1
# MLK2 = molecular target: T12, MLK2 (Homo sapiens, UniProt Q02779)
# T12 construct: purchased DiscoveRx KINOMEscan
# Summary of the method: as §1
# CSNK1A1 = molecular target: T13, CSNK1A1 (Homo sapiens, UniProt P48729)
# T13 construct: purchased DiscoveRx KINOMEscan
# Summary of the method: as §1
# S6K1 = molecular target: T14, S6K1 (Homo sapiens, UniProt P23443)
# T14 construct: purchased DiscoveRx KINOMEscan
# T14 sequence (P23443 whole entry): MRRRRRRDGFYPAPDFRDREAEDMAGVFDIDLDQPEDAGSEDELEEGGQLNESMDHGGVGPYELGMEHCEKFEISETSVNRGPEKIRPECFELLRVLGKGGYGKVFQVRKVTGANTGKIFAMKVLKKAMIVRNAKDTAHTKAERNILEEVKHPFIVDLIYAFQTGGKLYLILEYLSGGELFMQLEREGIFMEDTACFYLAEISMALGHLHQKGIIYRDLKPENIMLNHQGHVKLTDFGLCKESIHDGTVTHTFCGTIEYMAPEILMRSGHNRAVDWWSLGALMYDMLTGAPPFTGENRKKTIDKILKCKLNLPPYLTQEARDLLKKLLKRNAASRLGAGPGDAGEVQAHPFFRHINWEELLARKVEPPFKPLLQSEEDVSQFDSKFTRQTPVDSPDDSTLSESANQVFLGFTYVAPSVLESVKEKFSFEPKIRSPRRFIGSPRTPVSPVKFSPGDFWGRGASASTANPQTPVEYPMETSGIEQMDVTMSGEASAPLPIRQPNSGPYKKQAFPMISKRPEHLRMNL
# Summary of the method: as §1
# PLK1 = molecular target: T15, PLK1 (Homo sapiens, UniProt P53350)
# T15 construct: purchased DiscoveRx KINOMEscan
# Summary of the method: as §1
# AURKC = molecular target: T16, AURKC (Homo sapiens, UniProt Q9UQB9)
# T16 construct: purchased DiscoveRx KINOMEscan
# Summary of the method: as §1
# RIOK2 = molecular target: T17, RIOK2 (Homo sapiens, UniProt Q9BVS4)
# T17 construct: purchased DiscoveRx KINOMEscan
# Summary of the method: as §1
# CDK4-cyclinD1 = molecular target: T18, CDK4-cyclinD1 (Homo sapiens, UniProt P11802)
# T18 construct: purchased DiscoveRx KINOMEscan
# Summary of the method: as §1
# EPHB3 = molecular target: T19, EPHB3 (Homo sapiens, UniProt P54753)
# T19 construct: purchased DiscoveRx KINOMEscan
# T19 sequence (P54753 34-998): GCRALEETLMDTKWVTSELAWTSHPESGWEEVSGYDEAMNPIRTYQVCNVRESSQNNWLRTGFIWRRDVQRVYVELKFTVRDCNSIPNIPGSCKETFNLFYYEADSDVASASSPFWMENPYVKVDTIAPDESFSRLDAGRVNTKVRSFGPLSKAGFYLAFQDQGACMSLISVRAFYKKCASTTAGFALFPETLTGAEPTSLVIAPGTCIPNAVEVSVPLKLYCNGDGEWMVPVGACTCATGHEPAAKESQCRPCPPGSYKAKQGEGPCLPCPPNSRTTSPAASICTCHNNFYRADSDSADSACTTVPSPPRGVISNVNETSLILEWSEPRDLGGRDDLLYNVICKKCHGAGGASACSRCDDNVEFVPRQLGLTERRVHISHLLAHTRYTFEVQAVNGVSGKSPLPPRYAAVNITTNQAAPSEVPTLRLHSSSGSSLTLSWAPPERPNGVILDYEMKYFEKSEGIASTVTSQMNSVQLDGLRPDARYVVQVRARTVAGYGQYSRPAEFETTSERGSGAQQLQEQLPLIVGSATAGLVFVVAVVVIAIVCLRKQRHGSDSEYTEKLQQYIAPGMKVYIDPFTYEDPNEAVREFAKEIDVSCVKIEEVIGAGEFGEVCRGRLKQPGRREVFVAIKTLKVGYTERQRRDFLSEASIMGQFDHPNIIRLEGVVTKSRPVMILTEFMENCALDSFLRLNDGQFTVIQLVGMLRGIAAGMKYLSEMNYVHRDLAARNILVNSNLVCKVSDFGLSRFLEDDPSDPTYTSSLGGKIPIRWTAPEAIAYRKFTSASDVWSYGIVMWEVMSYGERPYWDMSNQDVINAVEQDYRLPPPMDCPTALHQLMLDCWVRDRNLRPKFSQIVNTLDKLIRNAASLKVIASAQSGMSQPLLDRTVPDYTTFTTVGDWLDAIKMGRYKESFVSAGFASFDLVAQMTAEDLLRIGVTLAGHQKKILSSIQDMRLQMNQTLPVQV
# Summary of the method: as §1
# PAK6 = molecular target: T20, PAK6 (Homo sapiens, UniProt Q9NQU5)
# T20 construct: purchased DiscoveRx KINOMEscan
# Summary of the method: as §1
# MARK1 = molecular target: T21, MARK1 (Homo sapiens, UniProt Q9P0L2)
# T21 construct: purchased DiscoveRx KINOMEscan
# Summary of the method: as §1
# PKAC-alpha = molecular target: T22, PKAC-alpha (Homo sapiens, UniProt P17612)
# T22 construct: purchased DiscoveRx KINOMEscan
# Summary of the method: as §1
# MLK3 = molecular target: T23, MLK3 (Homo sapiens, UniProt Q16584)
# T23 construct: purchased DiscoveRx KINOMEscan
# Summary of the method: as §1
# MLK1 = molecular target: T24, MLK1 (Homo sapiens, UniProt P80192)
# T24 construct: purchased DiscoveRx KINOMEscan
# T24 sequence (P80192 whole entry): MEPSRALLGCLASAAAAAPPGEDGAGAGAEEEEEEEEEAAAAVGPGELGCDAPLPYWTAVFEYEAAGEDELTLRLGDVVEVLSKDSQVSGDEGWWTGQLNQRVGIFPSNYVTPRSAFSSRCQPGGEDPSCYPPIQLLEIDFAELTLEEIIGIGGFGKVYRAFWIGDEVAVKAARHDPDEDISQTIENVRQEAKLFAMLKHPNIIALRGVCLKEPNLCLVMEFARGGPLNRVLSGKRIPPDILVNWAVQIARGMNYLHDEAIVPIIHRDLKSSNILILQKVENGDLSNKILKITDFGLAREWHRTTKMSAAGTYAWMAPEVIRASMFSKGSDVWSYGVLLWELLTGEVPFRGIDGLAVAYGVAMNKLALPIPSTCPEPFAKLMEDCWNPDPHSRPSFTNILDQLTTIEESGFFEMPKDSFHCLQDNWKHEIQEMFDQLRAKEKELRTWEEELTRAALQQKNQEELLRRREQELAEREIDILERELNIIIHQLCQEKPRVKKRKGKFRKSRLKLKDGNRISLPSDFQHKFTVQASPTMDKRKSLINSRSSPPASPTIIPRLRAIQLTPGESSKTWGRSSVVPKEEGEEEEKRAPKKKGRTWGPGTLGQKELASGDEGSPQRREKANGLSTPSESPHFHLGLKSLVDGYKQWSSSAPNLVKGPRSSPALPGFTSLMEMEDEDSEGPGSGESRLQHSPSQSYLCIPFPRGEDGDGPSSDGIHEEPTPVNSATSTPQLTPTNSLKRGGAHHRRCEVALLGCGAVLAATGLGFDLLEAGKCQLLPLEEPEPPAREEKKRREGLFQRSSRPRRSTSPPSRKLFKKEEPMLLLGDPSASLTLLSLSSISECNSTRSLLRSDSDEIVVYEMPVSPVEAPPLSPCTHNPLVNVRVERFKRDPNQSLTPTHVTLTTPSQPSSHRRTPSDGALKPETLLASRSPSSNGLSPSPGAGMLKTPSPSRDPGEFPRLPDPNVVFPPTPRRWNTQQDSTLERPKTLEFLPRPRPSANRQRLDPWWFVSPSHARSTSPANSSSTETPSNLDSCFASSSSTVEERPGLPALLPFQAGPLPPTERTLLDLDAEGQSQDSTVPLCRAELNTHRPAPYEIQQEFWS
# Summary of the method: as §1
# DCAMKL1 = molecular target: T25, DCAMKL1 (Homo sapiens, UniProt O15075)
# T25 construct: purchased DiscoveRx KINOMEscan
# Summary of the method: as §1
# NEK3 = molecular target: T26, NEK3 (Homo sapiens, UniProt P51956)
# T26 construct: purchased DiscoveRx KINOMEscan
# Summary of the method: as §1
# STK39 = molecular target: T27, STK39 (Homo sapiens, UniProt Q9UEW8)
# T27 construct: purchased DiscoveRx KINOMEscan
# Summary of the method: as §1
# PCTK2 = molecular target: T28, PCTK2 (Homo sapiens, UniProt Q00537)
# T28 construct: purchased DiscoveRx KINOMEscan
# Summary of the method: as §1
# [3] = molecular target: T29, JAK1(JH2domain-pseudokinase) (Homo sapiens, UniProt P23458)
# T29 construct: JAK1(JH2domain-pseudokinase); purchased DiscoveRx KINOMEscan
# Summary of the method: as §1
structure (smiles),measurement,setting,value
"Cc1ccc(C2=Nc3cccnc3S(=O)(=O)c3ccccc32)cc1 [TBPT, 6-(p-tolyl)benzo[f] pyrido[2,3-b][1,4] thiazepine 11,11-dioxide]",remaining binding at 5 µM,[1]; 5 μM,80%
same,remaining binding at 10 µM,[1]; 10 μM,100%
same,remaining binding at 5 µM,IRAK3; 5 μM,92%
same,remaining binding at 10 µM,IRAK3; 10 μM,82%
same,remaining binding at 5 µM,MKNK2; 5 μM,100%
same,remaining binding at 10 µM,MKNK2; 10 μM,96%
same,remaining binding at 5 µM,[2]; 5 μM,100%
same,remaining binding at 10 µM,[2]; 10 μM,93%
same,remaining binding at 5 µM,CAMK1G; 5 μM,100%
same,remaining binding at 10 µM,CAMK1G; 10 μM,100%
same,remaining binding at 5 µM,MRCKB; 5 μM,89%
same,remaining binding at 10 µM,MRCKB; 10 μM,92%
same,remaining binding at 5 µM,PIK3C2B; 5 μM,100%
same,remaining binding at 10 µM,PIK3C2B; 10 μM,100%
same,remaining binding at 5 µM,SYK; 5 μM,100%
same,remaining binding at 10 µM,SYK; 10 μM,100%
same,remaining binding at 5 µM,GRK1; 5 μM,100%
same,remaining binding at 10 µM,GRK1; 10 μM,100%
same,remaining binding at 5 µM,PIK3CD; 5 μM,94%
same,remaining binding at 10 µM,PIK3CD; 10 μM,100%
same,remaining binding at 5 µM,LCK; 5 μM,97%
same,remaining binding at 10 µM,LCK; 10 μM,100%
same,remaining binding at 5 µM,ERBB2; 5 μM,100%
same,remaining binding at 10 µM,ERBB2; 10 μM,100%
same,remaining binding at 5 µM,MLK2; 5 μM,70%
same,remaining binding at 10 µM,MLK2; 10 μM,100%
same,remaining binding at 5 µM,CSNK1A1; 5 μM,100%
same,remaining binding at 10 µM,CSNK1A1; 10 μM,86%
same,remaining binding at 5 µM,S6K1; 5 μM,100%
same,remaining binding at 10 µM,S6K1; 10 μM,88%
same,remaining binding at 5 µM,PLK1; 5 μM,76%
same,remaining binding at 10 µM,PLK1; 10 μM,80%
same,remaining binding at 5 µM,AURKC; 5 μM,85%
same,remaining binding at 10 µM,AURKC; 10 μM,96%
same,remaining binding at 5 µM,RIOK2; 5 μM,95%
same,remaining binding at 10 µM,RIOK2; 10 μM,100%
same,remaining binding at 5 µM,CDK4-cyclinD1; 5 μM,100%
same,remaining binding at 10 µM,CDK4-cyclinD1; 10 μM,79%
same,remaining binding at 5 µM,EPHB3; 5 μM,96%
same,remaining binding at 10 µM,EPHB3; 10 μM,100%
same,remaining binding at 5 µM,PAK6; 5 μM,100%
same,remaining binding at 10 µM,PAK6; 10 μM,100%
same,remaining binding at 5 µM,MARK1; 5 μM,89%
same,remaining binding at 10 µM,MARK1; 10 μM,100%
same,remaining binding at 5 µM,PKAC-alpha; 5 μM,93%
same,remaining binding at 10 µM,PKAC-alpha; 10 μM,100%
same,remaining binding at 5 µM,MLK3; 5 μM,87%
same,remaining binding at 10 µM,MLK3; 10 μM,100%
same,remaining binding at 5 µM,MLK1; 5 μM,100%
same,remaining binding at 10 µM,MLK1; 10 μM,100%
same,remaining binding at 5 µM,DCAMKL1; 5 μM,100%
same,remaining binding at 10 µM,DCAMKL1; 10 μM,89%
same,remaining binding at 5 µM,NEK3; 5 μM,100%
same,remaining binding at 10 µM,NEK3; 10 μM,100%
same,remaining binding at 5 µM,STK39; 5 μM,100%
same,remaining binding at 10 µM,STK39; 10 μM,62%
same,remaining binding at 5 µM,PCTK2; 5 μM,100%
same,remaining binding at 10 µM,PCTK2; 10 μM,89%
same,remaining binding at 5 µM,[3]; 5 μM,100%
same,remaining binding at 10 µM,[3]; 10 μM,100%
